pEC50: −log10 of the molar value.
How the values were obtained:
[1] = target: human FPR2 (Homo sapiens (Human), UniProt P25090); assay: FPR2 cyclic adenosine monophosphate (cAMP) assay; assay type: cell-based; conditions: CHO cells overexpressing human FPR2; forskolin 5 μM, IBMX 200 μM; inhibition of cAMP production, HTRF; read-out: hFPR2 cAMP2 EC50
Method: (§1) FPR2 and FPR1 Cyclic Adenosine Monophosphate (cAMP) Assays. A mixture of forskolin (5 μM final for FPR2 or 10 μM final for FPR1) and IBMX (200 μM final) were added to 384-well Proxiplates (Perkin-Elmer) pre-dotted with test compounds in DMSO (1% final) at final concentrations in the range of 0.020 nM to 100 μM. Chinese Hamster Ovary cells (CHO) overexpressing human FPR1 or human FPR2 receptors were cultured in F-12 (Ham's) medium supplemented with 10% qualified FBS, 250 μg/ml zeocin and 300 μg/ml hygromycin (Life Technologies). Reactions were initiated by adding 2,000 human FPR2 cells per well or 4,000 human FPR1 cells per well in Dulbecco's PBS (with calcium and magnesium) (Life Technologies) supplemented with 0.1% BSA (Perkin-Elmer). The reaction mixtures were incubated for 30 min at room temperature. The level of intracellular cAMP was determined using the HTRF HiRange cAMP assay reagent kit (Cisbio) according to manufacturer's instruction. Solutions of cryptate conjugated anti-cAMP and d2 fluorophore-labelled cAMP were made in a supplied lysis buffer separately. Upon completion of the reaction, the cells were lysed with equal volume of the d2-cAMP solution and anti-cAMP solution. After a 1-h room temperature incubation, time-resolved fluorescence intensity was measured using the Envision (Perkin-Elmer) at 400 nm excitation and dual emission at 590 nm and 665 nm. A calibration curve was constructed with an external cAMP standard at concentrations ranging from 1 μM to 0.1 pM by plotting the fluorescent intensity ratio from 665 nm emission to the intensity from the 590 nm emission against cAMP concentrations. The potency and activity of a compound to inhibit cAMP production was then determined by fitting to a 4-parametric logistic equation from a plot of cAMP level versus compound concentrations.

[2] = target: human FPR1 (Homo sapiens (Human), UniProt P21462); assay: FPR1 cyclic adenosine monophosphate (cAMP) assay; assay type: cell-based; conditions: CHO cells overexpressing human FPR1; forskolin 10 μM, IBMX 200 μM; inhibition of cAMP production, HTRF; read-out: hFPR1 cAMP EC50
human FPR1, sequence (P21462 whole entry): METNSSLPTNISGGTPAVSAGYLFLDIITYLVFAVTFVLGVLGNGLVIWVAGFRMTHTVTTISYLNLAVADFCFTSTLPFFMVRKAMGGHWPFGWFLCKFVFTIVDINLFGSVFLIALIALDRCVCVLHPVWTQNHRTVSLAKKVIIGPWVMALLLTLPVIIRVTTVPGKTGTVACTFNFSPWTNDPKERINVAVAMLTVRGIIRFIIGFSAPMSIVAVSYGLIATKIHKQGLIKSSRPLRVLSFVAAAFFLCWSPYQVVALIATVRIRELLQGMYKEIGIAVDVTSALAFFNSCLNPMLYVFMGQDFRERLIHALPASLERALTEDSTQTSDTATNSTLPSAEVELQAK
Method: as §1, with “After a 1-h room temperature incubation, time-resolved fluorescence intensity was measured using the Envision (Perkin-Elmer) at 400 nm excitation and dual emission at 590 nm and 665 nm. A calibration curve was constructed with an external cAMP standard at concentrations ranging from 1 μM to 0.1 pM by plotting the fluorescent intensity ratio from 665 nm emission to the intensity from the 590 nm emission against cAMP concentrations.” left out

human FPR2, sequence (P25090 whole entry): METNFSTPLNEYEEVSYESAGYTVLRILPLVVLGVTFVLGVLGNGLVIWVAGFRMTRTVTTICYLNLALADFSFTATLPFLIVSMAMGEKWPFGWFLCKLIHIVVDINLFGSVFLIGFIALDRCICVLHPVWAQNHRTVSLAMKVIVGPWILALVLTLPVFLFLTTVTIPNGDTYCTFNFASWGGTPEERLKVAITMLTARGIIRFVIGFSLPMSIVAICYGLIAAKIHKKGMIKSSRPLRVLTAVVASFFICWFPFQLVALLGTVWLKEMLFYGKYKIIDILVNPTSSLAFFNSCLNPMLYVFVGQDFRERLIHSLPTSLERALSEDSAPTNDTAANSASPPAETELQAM

Row | SMILES | pEC50 [1] | pEC50 [2]
1 | CS(=O)(=O)Nc1ccccc1-c1ccc(N2CC[C@@H](NC(=O)Nc3ccc(Cl)cc3)C2=O)c(F)c1F [Example 1, (R)—N-(4′-(3-(3-(4-Chlorophenyl)ureido)-2-oxopyrrolidin-1-yl)-2′,3′-difluoro-[1,1′-biphenyl]-2-yl)methanesulfonamide] | 9.37 | 6.70
2 | CS(=O)(=O)c1ccccc1-c1ccc(N2CC[C@@H](NC(=O)Nc3ccc(C(F)(F)F)cc3)C2=O)c(F)c1F [Example 11] | 8.59 | 6.54
3 | COc1ccc(NC(=O)N[C@@H]2CCN(c3ccc(-c4ccccc4S(C)(=O)=O)c(F)c3F)C2=O)cc1 [Example 54] | 8.26 | 6.05
4 | CC1(C)CN(c2ccc(-c3ccccc3P(C)(C)=O)c(F)c2F)C(=O)[C@@H]1NC(=O)Nc1cnc(Cl)cn1 [Example 130] | 8.24 | 5.52
5 | CS(=O)(=O)Nc1ccccc1-c1ccc(N2CC[C@@H](NC(=O)Nc3ccc(C(F)(F)F)cc3F)C2=O)c(C2CC2)c1 [Example 43] | 8.48 | 6.92
6 | CS(=O)(=O)Nc1ncccc1-c1ccc(N2CC[C@@H](NC(=O)Nc3ccc(Cl)cc3F)C2=O)c(F)c1F [Example 23] | 8.09 | 6.15
7 | CP(C)(=O)c1ccccc1-c1ccc(N2C(=O)[C@H](NC(=O)Nc3ccc(C(F)(F)F)cc3F)C[C@H]2CO)c(F)c1F [Example 114] | 9.07 | 6.57
8 | CP(C)(=O)c1ccccc1-c1ccc(N2C(=O)[C@H](NC(=O)Nc3ccc(C(F)(F)F)cc3F)C[C@H]2CN2CCOCC2)c(F)c1F [Example 131] | 8.92 | 7.21
9 | CC1C[C@@H](NC(=O)Nc2ccc(C(F)(F)F)cc2F)C(=O)N1c1ccc(-c2cccnc2P(C)(C)=O)c(F)c1F (some centres unmarked) [Example 128] | 9.00 | 7.62
10 | CC(N)c1cccc(-c2ccc(N3CC[C@@H](NC(=O)Nc4ccc(Cl)cc4)C3=O)c(F)c2F)c1 (some centres unmarked) [Example 12] | 8.60 | 6.35
11 | O=C(Nc1ccc(Cl)cc1F)N[C@@H]1CCN(c2ccc(-c3ccccc3N3CCOC3=O)c(F)c2F)C1=O [Example 119] | 7.85 | 6.72
12 | O=C(Nc1ccc(Cl)cc1)N[C@@H]1CCN(c2ccc(-c3cccnc3F)c(F)c2F)C1=O [Example 19] | 7.66 | 7.11
13 | CC(=O)NC(C)c1cccc(-c2ccc(N3CC[C@@H](NC(=O)Nc4ccc(Cl)cc4F)C3=O)c(F)c2F)c1 (some centres unmarked) [Example 44] | 7.37 | 6.35
14 | CC1(C)CN(c2ccc(-c3ccccc3P(C)(C)=O)c(F)c2F)C(=O)[C@@H]1NC(=O)Nc1ccc(Cl)cc1F [Example 103] | 9.24 | 6.46
15 | O=C(Nc1ccc(Cl)cc1)N[C@@H]1CCN(c2ccc(-c3ccccc3CO)c(F)c2F)C1=O [Example 3] | 8.96 | 6.66
16 | CP(C)(=O)c1ccccc1-c1ccc(N2CC(CO)[C@@H](NC(=O)Nc3ccc(C(F)(F)F)cc3F)C2=O)c(F)c1F (some centres unmarked) [Example 124] | 9.10 | 6.12
17 | CCP(=O)(CC)c1ncccc1-c1ccc(N2CC[C@@H](NC(=O)Nc3ccc(C(F)(F)F)cc3F)C2=O)c(F)c1F [Example 100] | 8.70 | 7.04
18 | CC1C[C@@H](NC(=O)Nc2ccc(C(F)(F)F)cc2F)C(=O)N1c1ccc(-c2ccccc2P(C)(C)=O)c(F)c1F (some centres unmarked) [Example 115] | 8.92 | 7.26
19 | CS(=O)(=O)Nc1ccccc1-c1ccc(N2CC[C@@H](NC(=O)Nc3cnc(C(F)(F)F)cn3)C2=O)c(F)c1F [Example 18] | 7.70 | 5.68
20 | CP(C)(=O)c1ccccc1-c1ccc(N2CC[C@@H](NC(=O)Nc3ccc(C(F)(F)F)cc3F)C2=O)c(C(F)(F)F)c1F [Example 92] | 8.08 | 6.66
21 | CP(C)(=O)c1ccccc1-c1ccc(N2C(=O)[C@H](NC(=O)Nc3ccc(Cl)cc3F)C[C@H]2CO)c(F)c1F [Example 112, 1-(4-Chloro-2-fluorophenyl)-3-((3R,5S)-1-(2′-(dimethylphosphoryl)-2,3-difluoro-[1,1′-biphenyl]-4-yl)-5-(hydroxymethyl)-2-oxopyrrolidin-3-yl)urea] | 9.57 | 6.41

Second part, the molecule after the results:

Row | pEC50 [1] | pEC50 [2] | SMILES
22 | 8.36 | 7.60 | CP(C)(=O)c1ccccc1-c1ccc(N2CC[C@@H](NC(=O)Nc3ccc(C(F)(F)F)cc3F)C2=O)c(F)c1C1CC1 [Example 89, (R)-1-(1-(2-Cyclopropyl-2′-(dimethylphosphoryl)-3-fluoro-[1,1′-biphenyl]-4-yl)-2-oxopyrrolidin-3-yl)-3-(2-fluoro-4-(trifluoromethyl)phenyl)urea]
23 | 7.64 | 6.43 | CC(C)c1cc(-c2ccccc2P(C)(C)=O)ccc1N1CC[C@@H](NC(=O)Nc2ncc(Cl)cc2F)C1=O [Example 61]
24 | 7.80 | 5.39 | CS(=O)(=O)Nc1ccccc1-c1ccc(N2CC[C@@H](NC(=O)Nc3ccc(Cl)cn3)C2=O)c(F)c1F [Example 17]
25 | 9.02 | 6.00 | CP(C)(=O)c1ccccc1-c1ccc(N2CC[C@@H](NC(=O)Nc3ccc(C(F)(F)F)cc3F)C2=O)c(F)c1F [Example 57, (R)-1-(1-(2′-(dimethylphosphoryl)-2,3-difluoro-[1,1′-biphenyl]-4-yl)-2-oxopyrrolidin-3-yl)-3-(2-fluoro-4-(trifluoromethyl)phenyl)urea]
26 | 8.61 | 5.89 | CCP(=O)(CC)c1ccccc1-c1ccc(N2CC[C@@H](NC(=O)Nc3ncc(Cl)cc3F)C2=O)c(F)c1F [Example 67]
27 | 9.26 | 7.33 | CS(=O)(=O)Nc1ccccc1-c1ccc(N2CC[C@@H](NC(=O)Nc3ccc(Cl)cc3F)C2=O)c(C2CC2)c1 [Example 26]
28 | 7.66 | 5.30 | CP(C)(=O)c1ccccc1-c1ccc(N2CC[C@@H](NC(=O)Nc3ccc(OC(F)(F)F)cc3F)C2=O)c(F)c1F [Example 69]
29 | 7.89 | 7.08 | CP(C)(=O)c1ccccc1-c1ccc(N2CC[C@@H](NC(=O)Nc3ccc(Cl)cc3F)C2=O)c(C2CC2)c1F [Example 117]
30 | 8.80 | 8.92 | CP(C)(=O)c1ccccc1-c1ccc(N2CC[C@@H](NC(=O)Nc3ccc(Cl)cc3F)C2=O)c(F)c1OC(F)(F)F [Example 87]
31 | 10.11 | 7.70 | CP(C)(=O)c1c(F)cccc1-c1ccc(N2CC[C@@H](NC(=O)Nc3ccc(Cl)cc3F)C2=O)c(F)c1F [Example 70]
32 | 8.06 | 5.54 | CP(C)(=O)c1ccccc1-c1ccc(N2CC[C@@H](NC(=O)Nc3ccc(C(F)(F)F)cn3)C2=O)c(F)c1F [Example 64]
33 | 9.10 | 6.62 | CP(C)(=O)c1ccccc1-c1ccc(N2CC[C@@H](NC(=O)Nc3ccc(Cl)cc3F)C2=O)c(Cl)c1F [Example 99]
34 | 8.55 | 7.19 | CC(C)c1cc(-c2cccnc2NS(C)(=O)=O)ccc1N1CC[C@@H](NC(=O)Nc2ccc(Cl)cc2F)C1=O [Example 47]
35 | 9.36 | 6.41 | CC1C[C@@H](NC(=O)Nc2ccc(Cl)cc2F)C(=O)N1c1ccc(-c2ccccc2P(C)(C)=O)c(F)c1F (stereo in doubt) [Example 109, 1-(4-Chloro-2-fluorophenyl)-3-(1-(2′-(dimethylphosphoryl)-2,3-difluoro-[1,1′-biphenyl]-4-yl)-5-methyl-2-oxopyrrolidin-3-yl)urea]
36 | 8.68 | 5.89 | COc1ccc(NC(=O)N[C@@H]2CCN(c3ccc(-c4ccccc4P(C)(C)=O)c(F)c3F)C2=O)c(F)c1 [Example 71]
37 | 8.54 | 7.12 | Cc1c(N2CC[C@@H](NC(=O)Nc3ccc(Cl)cc3F)C2=O)ccc(-c2ccccc2P(C)(C)=O)c1F [Example 96]
